ChEMBL document CHEMBL3885861, “Open TG-GATES”

Organism: Rattus norvegicus
Assay: Open TG-GATES - Regimen: Daily Repeat
Assay type: toxicity, organism-based, Sprague-Dawley
Design: regimen Daily Repeat, gender Male, age 6 weeks
Settings: in vivo, po, 0 mg/kg, route gavage, dose level Control; for APTT / Bas / Eos / Fbg / Hb / Ht / Lym / MCH / MCHC / MCV / Mono / Neu / PT / Plat / RBC / Ret / WBC: tissue Blood; for KIDNEY_L / KIDNEY_R / KIDNEY_TOTAL: tissue Kidney; for LIVER: tissue Liver; for A/G / ALP / ALT / AST / BUN / CRE / Ca / Cl / DBIL / GLC / IP / K / LDH / Na / PL / RALB / TBIL / TC / TG / TP / gamma-GTP: tissue Plasma

With `Clc1c(Cl)c(Cl)c(Cl)c(Cl)c1Cl` [PERCHLOROBENZENE] the TERMINAL_BW (72 h, time 3 day) was 224.3 g, the APTT (72 h, time 3 day) was 16.2 s and the Bas (72 h, time 3 day) was 0%. For the same molecule, the Eos (72 h, time 3 day) was 1.2%, the Fbg (72 h, time 3 day) was 217.4 mg/dL and the Hb (72 h, time 3 day) was 13.7 g/dL. It also gave a Ht (72 h, time 3 day) of 40.9%, a Lym (72 h, time 3 day) of 77% and an MCH (72 h, time 3 day) of 22 pg. It also gave an MCHC (72 h, time 3 day) of 33.5%, an MCV (72 h, time 3 day) of 65.6 fL and a Mono (72 h, time 3 day) of 8%. For the same molecule, the Neu (72 h, time 3 day) was 13.8%, the PT (72 h, time 3 day) was 11.8 s and the Plat (72 h, time 3 day) was 98.6 x10_4/uL. For the same molecule, the RBC (72 h, time 3 day) was 623.2 x10_4/ul, the Ret (72 h, time 3 day) was 8.6% and the WBC (72 h, time 3 day) was 102.9 x10_2/uL. The KIDNEY_L (72 h, time 3 day) was 1.1 g, the KIDNEY_R (72 h, time 3 day) was 1.1 g and the KIDNEY_TOTAL (72 h, time 3 day) was 2.2 g. It also gave an LIVER (72 h, time 3 day) of 11.5 g, an A/G (72 h, time 3 day) of 2.1 and an ALP (72 h, time 3 day) of 882.4 IU/L. The ALT (72 h, time 3 day) was 40.2 IU/L, the AST (72 h, time 3 day) was 59 IU/L and the BUN (72 h, time 3 day) was 16.2 mg/dL. For the same molecule, the CRE (72 h, time 3 day) was 0.5 mg/dL, the Ca (72 h, time 3 day) was 10.5 mg/dL and the Cl (72 h, time 3 day) was 105.2 meq/L. For the same molecule, the DBIL (72 h, time 3 day) was 0.038 mg/dL, the GLC (72 h, time 3 day) was 193.4 mg/dL and the IP (72 h, time 3 day) was 8.5 mg/dL. The K (72 h, time 3 day) was 5.4 meq/L, the LDH (72 h, time 3 day) was 85.8 IU/L and the Na (72 h, time 3 day) was 138.6 meq/L. For the same molecule, the PL (72 h, time 3 day) was 135 mg/dL, the RALB (72 h, time 3 day) was 3.9 g/dL and the TBIL (72 h, time 3 day) was 0.3 mg/dL. The TC (72 h, time 3 day) was 73 mg/dL, the TG (72 h, time 3 day) was 68.8 mg/dL and the TP (72 h, time 3 day) was 5.8 g/dL. It also gave a gamma-GTP (72 h, time 3 day) of 1.4 IU/L, a TERMINAL_BW ([…], time 7 day) of 255.4 g and a TERMINAL_BW ([…], time 14 day) of 321.1 g. For the same molecule, the TERMINAL_BW ([…], time 28 day) was 417.1 g, the APTT ([…], time 7 day) was 15.8 s and the Bas ([…], time 7 day) was 0%. For the same molecule, the Eos ([…], time 7 day) was 1.2%, the Fbg ([…], time 7 day) was 222.8 mg/dL and the Hb ([…], time 7 day) was 14.2 g/dL. It also gave a Ht ([…], time 7 day) of 42.4%, a Lym ([…], time 7 day) of 76.6% and an MCH ([…], time 7 day) of 21.8 pg. For the same molecule, the MCHC ([…], time 7 day) was 33.4%, the MCV ([…], time 7 day) was 65.2 fL and the Mono ([…], time 7 day) was 7.2%. The Neu ([…], time 7 day) was 14.8%, the PT ([…], time 7 day) was 12 s and the Plat ([…], time 7 day) was 96.5 x10_4/uL. It also gave an RBC ([…], time 7 day) of 651.2 x10_4/ul, a Ret ([…], time 7 day) of 5.9% and a WBC ([…], time 7 day) of 105.4 x10_2/uL. The APTT ([…], time 14 day) was 16 s, the Bas ([…], time 14 day) was 0% and the Eos ([…], time 14 day) was 1%. For the same molecule, the Fbg ([…], time 14 day) was 237.6 mg/dL, the Hb ([…], time 14 day) was 14.4 g/dL and the Ht ([…], time 14 day) was 43%. The Lym ([…], time 14 day) was 78.8%, the MCH ([…], time 14 day) was 21.2 pg and the MCHC ([…], time 14 day) was 33.5%. It also gave an MCV ([…], time 14 day) of 63.2 fL, a Mono ([…], time 14 day) of 6.4% and a Neu ([…], time 14 day) of 13.8%. It also gave a PT ([…], time 14 day) of 11.9 s, a Plat ([…], time 14 day) of 106.8 x10_4/uL and an RBC ([…], time 14 day) of 681.2 x10_4/ul. For the same molecule, the Ret ([…], time 14 day) was 5.2%, the WBC ([…], time 14 day) was 160.8 x10_2/uL and the APTT ([…], time 28 day) was 16.5 s. The Bas ([…], time 28 day) was 0%, the Eos ([…], time 28 day) was 1.2% and the Fbg ([…], time 28 day) was 221 mg/dL. The Hb ([…], time 28 day) was 15.2 g/dL, the Ht ([…], time 28 day) was 45.9% and the Lym ([…], time 28 day) was 83.4%. For the same molecule, the MCH ([…], time 28 day) was 19.3 pg, the MCHC ([…], time 28 day) was 33.1% and the MCV ([…], time 28 day) was 58.5 fL. For the same molecule, the Mono ([…], time 28 day) was 4.8%, the Neu ([…], time 28 day) was 10.8% and the PT ([…], time 28 day) was 11.7 s. The Plat ([…], time 28 day) was 97.1 x10_4/uL, the RBC ([…], time 28 day) was 783.8 x10_4/ul and the Ret ([…], time 28 day) was 2.5%. For the same molecule, the WBC ([…], time 28 day) was 133.5 x10_2/uL, the KIDNEY_L ([…], time 7 day) was 1.1 g and the KIDNEY_R ([…], time 7 day) was 1.2 g. It also gave a KIDNEY_TOTAL ([…], time 7 day) of 2.3 g, a KIDNEY_L ([…], time 14 day) of 1.3 g and a KIDNEY_R ([…], time 14 day) of 1.3 g. It also gave a KIDNEY_TOTAL ([…], time 14 day) of 2.6 g, a KIDNEY_L ([…], time 28 day) of 1.4 g and a KIDNEY_R ([…], time 28 day) of 1.5 g. It also gave a KIDNEY_TOTAL ([…], time 28 day) of 2.9 g, an LIVER ([…], time 7 day) of 12.9 g and an LIVER ([…], time 14 day) of 15.7 g. The LIVER ([…], time 28 day) was 18.2 g, the A/G ([…], time 7 day) was 2 and the ALP ([…], time 7 day) was 912 IU/L. The ALT ([…], time 7 day) was 33.4 IU/L, the AST ([…], time 7 day) was 58.6 IU/L and the BUN ([…], time 7 day) was 19.2 mg/dL. It also gave a CRE ([…], time 7 day) of 0.6 mg/dL, a Ca ([…], time 7 day) of 10.3 mg/dL and a Cl ([…], time 7 day) of 105.2 meq/L. For the same molecule, the DBIL ([…], time 7 day) was 0.024 mg/dL, the GLC ([…], time 7 day) was 193.6 mg/dL and the IP ([…], time 7 day) was 7.7 mg/dL. The K ([…], time 7 day) was 4.8 meq/L, the LDH ([…], time 7 day) was 95.8 IU/L and the Na ([…], time 7 day) was 137.4 meq/L. For the same molecule, the PL ([…], time 7 day) was 148.6 mg/dL, the RALB ([…], time 7 day) was 4 g/dL and the TBIL ([…], time 7 day) was 0.4 mg/dL. The TC ([…], time 7 day) was 78.2 mg/dL, the TG ([…], time 7 day) was 94.6 mg/dL and the TP ([…], time 7 day) was 5.9 g/dL. The gamma-GTP ([…], time 7 day) was 1 IU/L, the A/G ([…], time 14 day) was 1.8 and the ALP ([…], time 14 day) was 615.2 IU/L. For the same molecule, the ALT ([…], time 14 day) was 31.2 IU/L, the AST ([…], time 14 day) was 58.2 IU/L and the BUN ([…], time 14 day) was 18.6 mg/dL. The CRE ([…], time 14 day) was 0.6 mg/dL, the Ca ([…], time 14 day) was 10.2 mg/dL and the Cl ([…], time 14 day) was 105.6 meq/L. The DBIL ([…], time 14 day) was 0.004 mg/dL, the GLC ([…], time 14 day) was 189 mg/dL and the IP ([…], time 14 day) was 7.6 mg/dL. For the same molecule, the K ([…], time 14 day) was 4.9 meq/L, the LDH ([…], time 14 day) was 98 IU/L and the Na ([…], time 14 day) was 138.4 meq/L. For the same molecule, the PL ([…], time 14 day) was 155.6 mg/dL, the RALB ([…], time 14 day) was 4 g/dL and the TBIL ([…], time 14 day) was 0.3 mg/dL. It also gave a TC ([…], time 14 day) of 79 mg/dL, a TG ([…], time 14 day) of 136.4 mg/dL and a TP ([…], time 14 day) of 6.2 g/dL. The gamma-GTP ([…], time 14 day) was 1.2 IU/L, the A/G ([…], time 28 day) was 1.8 and the ALP ([…], time 28 day) was 643.6 IU/L. It also gave an ALT ([…], time 28 day) of 32.6 IU/L, an AST ([…], time 28 day) of 54.2 IU/L and a BUN ([…], time 28 day) of 18.6 mg/dL. It also gave a CRE ([…], time 28 day) of 0.7 mg/dL, a Ca ([…], time 28 day) of 10.6 mg/dL and a Cl ([…], time 28 day) of 105.4 meq/L. For the same molecule, the DBIL ([…], time 28 day) was 0.014 mg/dL, the GLC ([…], time 28 day) was 193 mg/dL and the IP ([…], time 28 day) was 7.5 mg/dL. It also gave a K ([…], time 28 day) of 4.3 meq/L, an LDH ([…], time 28 day) of 102 IU/L and a Na ([…], time 28 day) of 140 meq/L. It also gave a PL ([…], time 28 day) of 160.4 mg/dL, an RALB ([…], time 28 day) of 4.2 g/dL and a TBIL ([…], time 28 day) of 0.3 mg/dL. It also gave a TC ([…], time 28 day) of 77 mg/dL, a TG ([…], time 28 day) of 140.6 mg/dL and a TP ([…], time 28 day) of 6.5 g/dL. It also gave a gamma-GTP ([…], time 28 day) of 1 IU/L.
